Assay results reported in patent publication US20230144203A1 (SHANGHAI SENHUI MEDICINE CO., LTD., priority 2020, published 2023).
pIC50: −log10 of the molar value. Like-named read-outs stand apart in the source and are kept apart here.

Tests used:
A549 [1] = experiment: Test Example 1 in vitro cytotoxic activity screening (CTG); type: cell-based, human; conditions: for pIC50: Homo sapiens
Experimental: (§1) The CTG is used for detecting the ATP content in the experiment, and the survival condition of the tumor cells is reflected. […] The killing effect of the toxin molecule was then assayed according to this condition. 1.2. Selection of cell lines
(§2) According to the purpose of the experiment, two disease models of breast cancer and NSCLC were selected, and SKBR3 tumor cells (HER2+, ATCC, Cat #HTB-30), MDA-MB-468 (HER2-, ATCC, Cat #HTB-132) and A549 (human non-small cell lung cancer cells, ATCC, Cat #CCL-185) were selected for screening.
(§3) 2) Cell plating: A549 cells were digested with trypsin, and the cells were terminated with the above medium, and 4.3×10^5, 7.2×10^5 and 11.5×10^5 cells were added to the medium to give a final volume of 26 mL. 180 μL of cell suspension was added to each well in columns 2 to 11 of a 96-well plate (coming, Cat #3903) to give cell densities of 3K, 5K and 8K per well. Wells in column 12 were filled with 200 μL of culture medium and the remaining wells were filled with PBS. The above operations were repeated on the SKBR3 and MDA-MB-468 cells. The sample was duplicated.
(§4) 2 mM of stock solution (stock diluted 10-fold in DMSO) was prepared in column 1 of drug preparation plate 1, then 10-fold dilution in DMSO by gradient was performed in column 10, and the wells in column 11 were filled with DMSO. 95 μL of corresponding culture solution was added into each well from column 2 to column 11 of the drug preparation plate 2, 5 μL of solution was pipetted from column 2 to column 11 of drug preparation plate 1 to drug preparation plate 2, the solution was mixed well, 20 μL of solution was pipetted, added into the plated cells, and continuously cultured for 3 days and 5 days.
(§5) 4) CTG assay (Cell Titer-Glo™, luminescent cell viability assay, Promega): the cell plates were removed on day 3 and day 5, and balanced to room temperature. 90 μL of CTG was added into each well and reacted at room temperature for 10 min in the dark. The absorption value was read using a microplate reader and IC50 was calculated.

MDA-MB-468 [2] = experiment: as above; type: cell-based; conditions: for pIC50: Homo sapiens
Experimental: as §1, §2, §3, §4, §5

SKBR3 tumor cells = experiment: as above; type: cell-based; conditions: for pIC50: Homo sapiens, SK-BR-3
Experimental: as §1, §2, §3, §4, §5

[3] = Test Example 6 pharmacokinetic study in beagles; conditions: male, beagle, dog, iv, 0.5 mg/kg
Experimental: The pharmacokinetic performance in beagles of the compounds of the present disclosure was studied and the pharmacokinetic profile thereof was evaluated.
Male 6 beagles were divided into 2 groups of 3, purchased from Shanghai Medicilon Inc., and subjected to administration test.
Plasma samples were stored in a refrigerator at −80° C. prior to testing. […] The plasma concentration of the test compounds in beagles after drug injection was determined: after administration, 25 μL of beagle plasma at various times after administration was taken, and added with 50 μL (100 ng/mL) of internal standard solution camptothecin (National Institutes for Drug Control) and 200 μL of acetonitrile. The mixture was vortexed for 5 min and centrifuged for 10 min (3700 rpm/min). 3 to 4 μL of the supernatant of the plasma sample was subjected to LC/MS assay (API4000 triple quadrupole tandem mass spectrometer (No. 2), Applied Biosystems, USA; Shimadzu, LC-30AD ultra high performance liquid chromatography system, Shimadzu, Japan.) The analysis was performed.

MDA-MB-468 [4] = experiment: Test Example 2 in vitro cytotoxic activity screening (CTG); type: cell-based; conditions: for pIC50: Homo sapiens
Experimental: (§6) The CTG is used for detecting the ATP content in the experiment, and the survival condition of the tumor cells is reflected.
(§7) A549, SKBR3 and MDA-MB-468 were digested with trypsin, and each was resuspended in culture medium to a cell density of 2.2×10^4 cells/mL, and 135 μL of cell suspension was added to each well in columns 2 to 11 of a 96-well plate, and column 12 was set as blank control. The cells were incubated in an incubator for 24 h at 37° C. with 5% CO2.
(§8) a) Stock solution preparation: the test compound and positive control drug were dissolved in DMSO to give a stock solution at a concentration of 5 mM.
(§9) b) Drug preparation plate 1: stock solution in column 1 was initially diluted 40-fold, and 3-fold gradient dilutions were performed sequentially in column 2 to column 11. Column 12 was filled with DMSO.
(§10) c) Drug preparation plate 2: 196 μL of the corresponding culture medium was added into columns 2 to 11, and 4 μL of culture medium was pipetted from column 3 to column 12 of drug preparation plate 1 to column 2 to column 11 of drug preparation plate
(§11) 15 μL of culture medium was pipetted from the drug preparation plate 2 and added into the plated cells. The cells were continuously incubated in an incubator for 5 h at 37° C. with 5% CO2.
(§12) 2.4) CTG assay (Cell Titer-Glo™, luminescent cell viability assay): the cell plates were removed and balanced to room temperature. 75 μL of CTG was added into each well and reacted at room temperature for 10 min in the dark. The absorption value was read using a microplate reader and IC50 was calculated.

A549 [5] = experiment: as above; type: cell-based; conditions: for pIC50: Homo sapiens
Experimental: as §6, §7, §8, §9, §10, §11, §12

SKBR3 = experiment: as above; type: cell-based; conditions: for pIC50: Homo sapiens
Experimental: as §6, §7, §8, §9, §10, §11, §12

[6] = MDA-MB-468, CTG, read-out: IC50
[7] = SK-BR-3, SKBR3, CTG, incubated 5 h, read-out: IC50

C=C1C[C@@H]2CC[C@@]34C[C@H]5O[C@H]6[C@@H](O3)[C@H]3O[C@H](CC[C@@H]3O[C@H]6[C@H]5O4)CC(=O)C[C@@H]3[C@@H](OC)[C@@H](C[C@@H](CN)OC)O[C@H]3C[C@H]3O[C@@H](CC[C@@H]1O2)C[C@@H](C)C3=C [Compound D-1]
Maximum inhibition (A549 [1]; A549, CTG): 81.34% | pIC50 (A549 [1]; A549): 9.29 | pIC50 (MDA-MB-468 [2]; MDA-MB-468): 9.74 | Maximum inhibition (MDA-MB-468 [2]; MDA-MB-468, CTG): 88.01% | pIC50 (SKBR3 tumor cells): 9.69 | Maximum inhibition (SKBR3 tumor cells; SKBR3, CTG): 96.87% | AUC(0-t) ([3]; in vivo): 433 ng·h/mL | MRT ([3]; in vivo): 41.1 h | Vd ([3]; in vivo): 22 L/kg | clearance ([3]; in vivo): 8.9 mL/min/kg | concentration at 5 min ([3]; in vivo): 82.1 ng/mL | half-life ([3]; in vivo): 29.3 h

C=C1C[C@@H]2CC[C@@]34C[C@H]5O[C@H]6[C@@H](O3)[C@H]3O[C@H](CC[C@@H]3O[C@H]6[C@H]5O4)CC(=O)C[C@@H]3[C@@H](OC)[C@@H](C[C@H](O)CNC(=O)[C@H](O)C4CC4)O[C@H]3C[C@H]3O[C@@H](CC[C@@H]1O2)C[C@@H](C)C3=C [Compound D-2]
pIC50 (A549 [1]; A549, CTG, read-out: IC50): 8.50 | pIC50 (MDA-MB-468 [2]; [6]): 9.04 | pIC50 (SKBR3 tumor cells; SKBR3, CTG, read-out: IC50): 9.08

C=C1C[C@@H]2CC[C@@]34C[C@H]5O[C@H]6[C@@H](O3)[C@H]3O[C@H](CC[C@@H]3O[C@H]6[C@H]5O4)CC(=O)C[C@@H]3[C@@H](OC)[C@@H](C[C@@H](CNC(=O)[C@H](O)C4CC4)OC)O[C@H]3C[C@H]3O[C@@H](CC[C@@H]1O2)C[C@@H](C)C3=C [Compound D-3]
pIC50 (A549 [1]; A549): 8.29 | pIC50 (MDA-MB-468 [2]; MDA-MB-468): 8.78 | pIC50 (SKBR3 tumor cells): 8.87 | pIC50 (MDA-MB-468 [4]; MDA-MB-468, 5 h): 8.70 | Maximum inhibition (MDA-MB-468 [4]; MDA-MB-468, CTG, incubated 5 h): 90.94% | Maximum inhibition (A549 [5]; A549, CTG, incubated 5 h): 63.03% | pIC50 (A549 [5]; A549, 5 h): 8.66 | pIC50 (SKBR3; SK-BR-3, 5 h): 8.93 | Maximum inhibition (SKBR3; SKBR3, CTG, incubated 5 h): 96.36%

C=C1C[C@@H]2CC[C@]34C[C@@H]5O[C@H]6[C@@H](O3)[C@@H]3O[C@H](CC[C@@H]3O[C@@H]6[C@H]5O4)CC(=O)C[C@@H]3[C@H](OC)[C@@H](C[C@H](O)CNC(=O)CO)O[C@H]3C[C@H]3O[C@@H](CC[C@@H]1O2)C[C@H](C)C3=C [Compound D-4]
pIC50 (A549 [1]; A549, CTG, read-out: IC50): 8.25 | pIC50 (MDA-MB-468 [2]; [6]): 8.75 | pIC50 (SKBR3 tumor cells; SKBR3, CTG, read-out: IC50): 8.89 | pIC50 (MDA-MB-468 [4]; MDA-MB-468, CTG, incubated 5 h, read-out: IC50): 8.73 | Maximum inhibition (MDA-MB-468 [4]; MDA-MB-468, CTG, incubated 5 h): 89.43% | Maximum inhibition (A549 [5]; A549, CTG, incubated 5 h): 62.09% | pIC50 (A549 [5]; A549, CTG, incubated 5 h, read-out: IC50): 8.51 | pIC50 (SKBR3; [7]): 8.96 | Maximum inhibition (SKBR3; SKBR3, CTG, incubated 5 h): 96.85%

C=C1C[C@@H]2CC[C@@]34C[C@H]5O[C@H]6[C@@H](O3)[C@H]3O[C@H](CC[C@@H]3O[C@H]6[C@H]5O4)CC(=O)C[C@@H]3[C@@H](OC)[C@@H](C[C@H](O)CNC(=O)C4(O)CC4)O[C@H]3C[C@H]3O[C@@H](CC[C@@H]1O2)C[C@@H](C)C3=C [Compound D-5]
pIC50 (A549 [1]; A549, CTG, read-out: IC50): 8.40 | pIC50 (SKBR3 tumor cells; SKBR3, CTG, read-out: IC50): 9.42

C=C1C[C@@H]2CC[C@@]34C[C@H]5O[C@H]6[C@@H](O3)[C@H]3O[C@H](CC[C@@H]3O[C@H]6[C@H]5O4)CC(=O)C[C@@H]3[C@@H](OC)[C@@H](C[C@H](O)COC(=O)[C@H](O)C4CC4)O[C@H]3C[C@H]3O[C@@H](CC[C@@H]1O2)C[C@@H](C)C3=C [Compound D-6]
pIC50 (A549 [1]; A549, CTG, read-out: IC50): 8.73 | pIC50 (MDA-MB-468 [2]; [6]): 9.00 | pIC50 (SKBR3 tumor cells; SKBR3, CTG, read-out: IC50): 9.53

C=C1C[C@@H]2CC[C@@]34C[C@H]5O[C@H]6[C@@H](O3)[C@H]3O[C@H](CC[C@@H]3O[C@H]6[C@H]5O4)CC(=O)C[C@@H]3[C@@H](OC)[C@@H](C[C@H](O)COC(=O)C4(O)CC4)O[C@H]3C[C@H]3O[C@@H](CC[C@@H]1O2)C[C@@H](C)C3=C [Compound D-7]
pIC50 (A549 [1]; A549, CTG, read-out: IC50): 8.75 | pIC50 (MDA-MB-468 [2]; [6]): 9.04 | pIC50 (SKBR3 tumor cells; SKBR3, CTG, read-out: IC50): 9.32

C=C1C[C@@H]2CC[C@@]34C[C@H]5O[C@H]6[C@@H](O3)[C@H]3O[C@H](CC[C@@H]3O[C@H]6[C@H]5O4)CC(=O)C[C@@H]3[C@@H](OC)[C@@H](C[C@H](O)COC(=O)c4ccc(CO)cc4)O[C@H]3C[C@H]3O[C@@H](CC[C@@H]1O2)C[C@@H](C)C3=C [Compound D-8]
pIC50 (A549 [1]; A549, CTG, read-out: IC50): 9.09 | pIC50 (MDA-MB-468 [2]; [6]): 9.07 | pIC50 (SKBR3 tumor cells; SKBR3, CTG, read-out: IC50): 9.48

C=C1C[C@@H]2CC[C@@]34C[C@H]5O[C@H]6[C@@H](O3)[C@H]3O[C@H](CC[C@@H]3O[C@H]6[C@H]5O4)CC(=O)C[C@@H]3[C@@H](OC)[C@@H](C[C@H](O)CNC)O[C@H]3C[C@H]3O[C@@H](CC[C@@H]1O2)C[C@@H](C)C3=C [Compound E-305, reference compound]
pIC50 (MDA-MB-468 [4]; MDA-MB-468, 5 h): 8.93 | Maximum inhibition (MDA-MB-468 [4]; MDA-MB-468, CTG, incubated 5 h): 88.53% | Maximum inhibition (A549 [5]; A549, CTG, incubated 5 h): 61.27% | pIC50 (A549 [5]; A549, 5 h): 8.68 | pIC50 (SKBR3; [7]): 9.24 | Maximum inhibition (SKBR3; SKBR3, CTG, incubated 5 h): 96.42%

C=C1C[C@@H]2CC[C@@]34C[C@H]5O[C@H]6[C@@H](O3)[C@H]3O[C@H](CC[C@@H]3O[C@H]6[C@H]5O4)CC(=O)C[C@@H]3[C@@H](OC)[C@@H](C[C@H](O)CN)O[C@H]3C[C@H]3O[C@@H](CC[C@@H]1O2)C[C@@H](C)C3=C [Eribulin, eribulin, reference compound]
Maximum inhibition (A549 [1]; A549, CTG): 81.50% | Maximum inhibition (MDA-MB-468 [2]; MDA-MB-468, CTG): 87.47% | Maximum inhibition (SKBR3 tumor cells; SKBR3, CTG): 94.90% | concentration at 5 min [3]: 217 ng/mL
